Assays:
A549 = test: Synergistic cytotoxicity test (MTS), A549; type: cell-based, human; details: 96 h
Method: (§1) Containing 10% bovine fetal serum, 1 mM of sodium pyruvate, 2 mM of L-glutamine, 50 U/mL of penicillin, 50 μg/ mL of streptomycin.
(§2) Human tumor cells: du145-human prostate cancer; MCF-7-human breast cancer; SK0V3-human ovarian carcinoma, HT-29-human colon cancer; A549-human non-small cell lung cancer (adenocarcinoma), H460-human non-small cell lung cancer (large cell carcinoma), and animal tumor cells: L1210-mice leukemia cells used in the following activity test experiments were all purchased from Shanghai An Yan Commercial Trade Co., Ltd.
(§3) MTS test method was used in cytotoxicity assay. The tumor cells of logarithmic phase were collected, and then the concentration of cell suspension was adjusted, 100 μL of the cell suspension was added to each well, the cells were placed at 1000-10000 cells/well (edge well filled with sterile PBS). Cells were incubated at 37° C. with 5% CO2 to make cell monolayer overspread the bottom of each well (96-well flat-bottomed microplate). 100 μL of certain concentration solution of a mixture of the fluorine-containing water-soluble platinum complex with other antitumor agents was added to each well. Each condition was measured in five replicates. The microplate was incubated at 37° C. with 5% CO2 for 96 h and checked with inverted microscope. MTS working reagent: To 2 mL of MTS (2 mg/mL, prepared by DPBS) was added 100 μL of PMS (1 mg/mL, prepared by DPBS). The cell culture medium was discarded after centrifugation, the cell culture plate was carefully washed 2-3 times with PBS. Before detecting the absorbance value (OD), to each sample containing well was added 100 μL of cell culture medium, then 20 μL of MTS working reagent was added. After incubation at 37° C. with 5% CO2 for 2 h, the OD (optical density) value was detected at 490 nm.
(§4) Each of above experiment was repeated five times, and the cell viability was calculated according to the mean OD values.
(§5) Cell Viability (%)=(treated group OD value/control group OD value)×100
(§6) Control group: the conditions are the same as the above without adding the tested drug mixture (100 μL of culture medium was added in stead), and finally the absorbance was measured at 490 nm to obtain the OD value of the tumor cells.
(§7) Drug Group-1: only the fluorine-containing water-soluble platinum complex was added under the above conditions to obtain cell viability of tumor cells.
(§8) Drug Group-2: only the other chemotherapeutic drug (active ingredient) was added under the above conditions to obtain cell viability of tumor cells.
(§9) Drug Combination Group: the fluorine-containing water-soluble platinum complex and other chemotherapeutic drugs were added simultaneously under the above conditions to obtain cell viability of tumor cell. (2) Evaluation Method:
(§10) When the fluorine-containing water-soluble platinum complexes used in combination with other chemotherapy drugs, the inhibition effect on cancer cell proliferation is enhanced or synergistic, and the effect was calculated using the following formula:
(§11) Combination Effect (%)={[(A1-X)+(A2-X)]/(A1-A2)|}×100
(§12) wherein, A1 is the cell viability of drug group-1, A2 is the cell viability of drug group-2, X is the cell viability of drug combination group, (A1-A2)| is the absolute value of the cell viability difference between the two groups.
(§13) Calculated according to the above formula, when the results of [Combination Effect (%)]>+100%, that means the effect of inhibition on cell proliferation is enhanced or synergistic (3) Experimental Result: […]

SK0V3 = test: Synergistic cytotoxicity test (MTS), SKOV3; type: cell-based, human; details: 96 h
Method: as §1, §2, §3, §4, §5, §6, §7, §8, §9, §10, §11, §12, §13

MCF7 = test: Synergistic cytotoxicity test (MTS), MCF7; type: cell-based, human; details: 96 h
Method: as §1, §2, §3, §4, §5, §6, §7, §8, §9, §10, §11, §12, §13

HT29 = test: Synergistic cytotoxicity test (MTS), HT29; type: cell-based, human; details: 96 h
Method: as §1, §2, §3, §4, §5, §6, §7, §8, §9, §10, §11, §12, §13

DU145 = test: Synergistic cytotoxicity test (MTS), DU145; type: cell-based, human; details: 96 h
Method: as §1, §2, §3, §4, §5, §6, §7, §8, §9, §10, §11, §12, §13

H460 = test: Synergistic cytotoxicity test (MTS), H460; type: cell-based, human; details: 96 h
Method: as §1, §2, §3, §4, §5, §6, §7, §8, §9, §10, §11, §12, §13

L1210 tumor cells = test: Antitumor efficacy in L1210 tumor-bearing CDF1 mice (increase in life span); type: in vivo
Method: In the following test, antitumor efficacy studies were performed using 8-9 weeks old female CDF1 mice, the average weight of the animal is 20-25 grams. L1210 tumor cells (about 10^5 cells per mouse) were inoculated intraperitoneally. The fluorine-containing water-soluble platinum complexes were used to treat the tumor-bearing animals and the efficacy was compared compared with the clinical platinum antitumor drugs. […] Drugs were administered intraperitoneally on day 1 and day 4 after tumor cell transplantation. The number of experimental animals in each group was 6.
The experimental animals were purchased from Vital River Laboratory Animal Technology Co. Ltd., Tumor cells L1210-leukemia cells were purchased from Shanghai An Yan Commercial Trade Co. Ltd.
The increase in life span (ILS) is calculated as follows:
Wherein, St=the weighted median survival time of treated animals; Su=the weighted median survival time of untreated animals

[1] = other chemotherapy drug (at its listed dosage) combined with Complex 2 (dosage: 1 μM)
[2] = other chemotherapy drug (at its listed dosage) combined with Complex 3 (dosage: 1 μM)
[3] = other chemotherapy drug (at its listed dosage) combined with Complex 2 (dosage: 1 μM), SLOV3
[4] = other chemotherapy drug (at its listed dosage) combined with Complex 3 (dosage: 1 μM), SlOV3
[5] = other chemotherapy drug (at its listed dosage) combined with Complex 5 (dosage: 1 μM), SLOV3
[6] = other chemotherapy drug (at its listed dosage) combined with Complex 6 (dosage: 1 μM), SLOV3
[7] = other chemotherapy drug (at its listed dosage) combined with Complex 5 (dosage: 1 μM)
[8] = other chemotherapy drug (at its listed dosage) combined with Complex 6 (dosage: 1 μM)
[9] = 1.25 mg/Kg i.p. on day 1 and day 4
[10] = 2.5 mg/Kg i.p. on day 1 and day 4
[11] = 5.0 mg/Kg i.p. on day 1 and day 4
[12] = 50 mg/Kg i.p. on day 1 and day 4
[13] = 100 mg/Kg i.p. on day 1 and day 4
[14] = 200 mg/Kg i.p. on day 1 and day 4

| Compound | the effect of drug combination (Combination Effect) (A549; [1]) | the effect of drug combination (Combination Effect) (A549; [2]) | the effect of drug combination (Combination Effect) (SK0V3; [3]) | the effect of drug combination (Combination Effect) (SK0V3; [4]) | the effect of drug combination (Combination Effect) (SK0V3; [5]) | the effect of drug combination (Combination Effect) (SK0V3; [6]) | the effect of drug combination (Combination Effect) (MCF7; [1]) | the effect of drug combination (Combination Effect) (MCF7; [2]) | the effect of drug combination (Combination Effect) (MCF7; [7]) | the effect of drug combination (Combination Effect) (MCF7; [8]) | the effect of drug combination (Combination Effect) (HT29; [1]) | the effect of drug combination (Combination Effect) (HT29; [2]) | the effect of drug combination (Combination Effect) (HT29; [7]) | the effect of drug combination (Combination Effect) (HT29; [8]) | the effect of drug combination (Combination Effect) (DU145; [1]) | the effect of drug combination (Combination Effect) (DU145; [2]) | the effect of drug combination (Combination Effect) (DU145; [7]) | the effect of drug combination (Combination Effect) (DU145; [8]) | the effect of drug combination (Combination Effect) (H460; [7]) | the effect of drug combination (Combination Effect) (H460; [8]) | also measured |
| --- | --- | --- | --- | --- | --- | --- | --- | --- | --- | --- | --- | --- | --- | --- | --- | --- | --- | --- | --- | --- | --- |
| O=c1[nH]cc(F)c(=O)[nH]1 [5-Fluorouracil] | ⊚ (⊚ represents the effect of drug combination > 300%) | ⊚ (⊚ represents the effect of drug combination > 300%) | ⊚ (⊚ represents the effect of drug combination > 300%) | ⊚ (⊚ represents the effect of drug combination > 300%) | ⊚ (⊚ represents the effect of drug combination > 300%) | ⊚ (⊚ represents the effect of drug combination > 300%) | ⊚ (⊚ represents the effect of drug combination > 300%) | ⊚ (⊚ represents the effect of drug combination > 300%) | ⊚ (⊚ represents the effect of drug combination > 300%) | ⊚ (⊚ represents the effect of drug combination > 300%) | ⊚ (⊚ represents the effect of drug combination > 300%) | ⊚ (⊚ represents the effect of drug combination > 300%) | ⊚ (⊚ represents the effect of drug combination > 300%) | ⊚ (⊚ represents the effect of drug combination > 300%) | ⊚ (⊚ represents the effect of drug combination > 300%) | ⊚ (⊚ represents the effect of drug combination > 300%) | ⊚ (⊚ represents the effect of drug combination > 300%) | ⊚ (⊚ represents the effect of drug combination > 300%) | ⊚ (⊚ represents the effect of drug combination > 300%) | ⊚ (⊚ represents the effect of drug combination > 300%) | – |
| CCCCCOC(=O)Nc1nc(=O)n([C@@H]2O[C@H](C)[C@@H](O)[C@H]2O)cc1F [Capecitabine] | ○ (○ represents: 100% < the effect of drug combination < 300%) | ○ (○ represents: 100% < the effect of drug combination < 300%) | ○ (○ represents: 100% < the effect of drug combination < 300%) | ○ (○ represents: 100% < the effect of drug combination < 300%) | ○ (○ represents: 100% < the effect of drug combination < 300%) | ○ (○ represents: 100% < the effect of drug combination < 300%) | ⊚ (⊚ represents the effect of drug combination > 300%) | ⊚ (⊚ represents the effect of drug combination > 300%) | ⊚ (⊚ represents the effect of drug combination > 300%) | ⊚ (⊚ represents the effect of drug combination > 300%) | ⊚ (⊚ represents the effect of drug combination > 300%) | ○ (○ represents: 100% < the effect of drug combination < 300%) | ○ (○ represents: 100% < the effect of drug combination < 300%) | ○ (○ represents: 100% < the effect of drug combination < 300%) | ○ (○ represents: 100% < the effect of drug combination < 300%) | ○ (○ represents: 100% < the effect of drug combination < 300%) | ○ (○ represents: 100% < the effect of drug combination < 300%) | ○ (○ represents: 100% < the effect of drug combination < 300%) | ○ (○ represents: 100% < the effect of drug combination < 300%) | ○ (○ represents: 100% < the effect of drug combination < 300%) | – |
| N.N.[Cl][Pt][Cl] [Cisplatin] | – | – | – | – | – | – | – | – | – | – | – | – | – | – | – | – | – | – | – | – | ILS (%) (L1210 tumor cells; [9]): 36%; Survived Animals on Day 42 (L1210 tumor cells; [9]): 0/6; ILS (%) (L1210 tumor cells; [10]): 100%; Survived Animals on Day 42 (L1210 tumor cells; [10]): 0/6; ILS (%) (L1210 tumor cells; [11]): 236%; Survived Animals on Day 42 (L1210 tumor cells; [11]): 3/6 |
| [NH2][Pt]1([NH2])[O]C(=O)C(F)(CCCOC2OC(CO)C(O)C(O)C2O)C(=O)[O]1 (stereo not drawn) [Complex 15] | – | – | – | – | – | – | – | – | – | – | – | – | – | – | – | – | – | – | – | – | ILS (%) (L1210 tumor cells; [12]): >380%; Survived Animals on Day 42 (L1210 tumor cells; [12]): 6/6; Weight Changes (g) (L1210 tumor cells; 50 mg/Kg i.p. on day 1 and day 4, weight changes from the first day to the seventh day): +1.0 g; ILS (%) (L1210 tumor cells; [13]): >380%; Survived Animals on Day 42 (L1210 tumor cells; [13]): 6/6; Weight Changes (L1210 tumor cells; 100 mg/Kg i.p. on day 1 and day 4, weight changes from the first day to the seventh day): -0.3 g; ILS (%) (L1210 tumor cells; [14]): >380%; Survived Animals on Day 42 (L1210 tumor cells; [14]): 6/6; Weight Changes (L1210 tumor cells; 200 mg/Kg i.p. on day 1 and day 4, weight changes from the first day to the seventh day): -0.8 g |
| Nc1ccn([C@@H]2O[C@H](CO)[C@@H](O)C2(F)F)c(=O)n1 [Gemcitabine] | ⊚ (⊚ represents the effect of drug combination > 300%) | ⊚ (⊚ represents the effect of drug combination > 300%) | ⊚ (⊚ represents the effect of drug combination > 300%) | ○ (○ represents: 100% < the effect of drug combination < 300%) | ○ (○ represents: 100% < the effect of drug combination < 300%) | ○ (○ represents: 100% < the effect of drug combination < 300%) | ⊚ (⊚ represents the effect of drug combination > 300%) | ⊚ (⊚ represents the effect of drug combination > 300%) | ⊚ (⊚ represents the effect of drug combination > 300%) | ⊚ (⊚ represents the effect of drug combination > 300%) | ⊚ (⊚ represents the effect of drug combination > 300%) | ⊚ (⊚ represents the effect of drug combination > 300%) | ⊚ (⊚ represents the effect of drug combination > 300%) | ⊚ (⊚ represents the effect of drug combination > 300%) | ⊚ (⊚ represents the effect of drug combination > 300%) | ○ (○ represents: 100% < the effect of drug combination < 300%) | ○ (○ represents: 100% < the effect of drug combination < 300%) | ○ (○ represents: 100% < the effect of drug combination < 300%) | ⊚ (⊚ represents the effect of drug combination > 300%) | ⊚ (⊚ represents the effect of drug combination > 300%) | – |
